From ChEMBL document CHEMBL1201862, “PubChem BioAssay data set” (2004)
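Each compound was tested at five concentrations against cells in 96-well plates for 48 hours. Abbreviation: GI50, concentration required for 50% inhibition of growth.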 Activity calls are given as the source filed them. Rule as the data show it: active = GI50 up to about 1.1 µM and inactive = higher. Where a SMILES comes first, the peptide text is derived from it. The star is where a group is joined. Cbz = O=C(OCc1ccccc1)*; Bn = c1ccc(C*)cc1

Assays:
Assay in all cases: NCI tumour cell line growth inhibition, 48 h
M14 = tested on: M14
RXF 393 = tested on: RXF 393
RPMI-8226 = tested on: RPMI-8226
SF-295 = tested on: SF-295
ACHN = tested on: ACHN
SF-539 = tested on: SF-539
UACC-257 = tested on: UACC-257
LOX IMVI = tested on: LOX IMVI
U-251 = tested on: U-251
NCI-H23 = tested on: NCI-H23
OVCAR-3 = tested on: OVCAR-3
BT-549 = tested on: BT-549
UACC-62 = tested on: UACC-62
SK-MEL-28 = tested on: SK-MEL-28
CCRF-CEM = tested on: CCRF-CEM
Malme-3M = tested on: Malme-3M
TK-10 = tested on: TK-10
SW-620 = tested on: SW-620
A498 = tested on: A498
HT-29 = tested on: HT-29

Compound	GI50 (M14)	GI50 (RXF 393)	GI50 (RPMI-8226)	GI50 (SF-295)	GI50 (ACHN)	GI50 (SF-539)	GI50 (UACC-257)	GI50 (LOX IMVI)	GI50 (U-251)	GI50 (NCI-H23)	GI50 (OVCAR-3)	GI50 (BT-549)	GI50 (UACC-62)	GI50 (SK-MEL-28)	GI50 (CCRF-CEM)	GI50 (Malme-3M)	GI50 (TK-10)	GI50 (SW-620)	GI50 (A498)	GI50 (HT-29)
COc1cc(OC)c2nc(C)c3c(c2c1)OCC3	> 100 µM (inactive)	22.6 µM (inactive)	> 100 µM (inactive)	34 µM (inactive)	> 100 µM (inactive)	86.7 µM (inactive)	> 100 µM (inactive)	> 100 µM (inactive)	35 µM (inactive)	> 100 µM (inactive)	> 100 µM (inactive)	> 100 µM (inactive)	44.8 µM (inactive)	> 100 µM (inactive)	> 100 µM (inactive)	> 100 µM (inactive)	> 100 µM (inactive)	> 100 µM (inactive)	> 100 µM (inactive)	> 100 µM (inactive)
S=C(NCCc1ccccn1)N/N=C(\c1ccccc1)c1ccccn1	0.0378 µM (active)	2.4 µM (inactive)	0.0634 µM (active)	2.33 µM (inactive)	< 0.0344 µM (active)	0.63 µM (active)	0.113 µM (active)	0.301 µM (active)	0.121 µM (active)	0.125 µM (active)	0.0989 µM (active)	3.3 µM (inactive)	1.03 µM (active)	14.7 µM (inactive)	< 0.01 µM (active)	0.0251 µM (active)	1.33 µM (inactive)	0.0331 µM (active)	0.211 µM (active)	< 0.01 µM (active)
O=C(O)CN1C(=O)OC(c2ccccc2)C1=O (stereo not given)	> 100 µM (inactive)	> 100 µM (inactive)	> 100 µM (inactive)	> 100 µM (inactive)	> 100 µM (inactive)	> 100 µM (inactive)	> 100 µM (inactive)	> 100 µM (inactive)	> 100 µM (inactive)	> 100 µM (inactive)	> 100 µM (inactive)	> 100 µM (inactive)	> 100 µM (inactive)	> 100 µM (inactive)	> 100 µM (inactive)	> 100 µM (inactive)	> 100 µM (inactive)	> 100 µM (inactive)	> 100 µM (inactive)	> 100 µM (inactive)
COc1ccc2c(c1)CCC(CN1CCN(CCOC(c3ccccc3)c3ccccc3)CC1)C2O (stereo not given)	14.2 µM (inactive)	14.1 µM (inactive)	11 µM (inactive)	18.9 µM (inactive)	12.6 µM (inactive)	11.3 µM (inactive)	13 µM (inactive)	17.3 µM (inactive)	14.8 µM (inactive)	15.1 µM (inactive)	15.3 µM (inactive)	14 µM (inactive)	13.5 µM (inactive)	16.5 µM (inactive)	16.3 µM (inactive)	17.5 µM (inactive)	14.1 µM (inactive)	20 µM (inactive)	10.5 µM (inactive)	5.04 µM (inactive)
Nc1c2c(=O)[nH]c(=O)c2c(N)c2c(=O)c3ccccc3c(=O)c12	0.243 µM (active)	3.57 µM (inactive)	2.05 µM (inactive)	1.59 µM (inactive)	2.24 µM (inactive)	2.04 µM (inactive)	1.69 µM (inactive)	1.23 µM (inactive)	3.61 µM (inactive)	0.76 µM (active)	0.684 µM (active)	1.99 µM (inactive)	1.61 µM (inactive)	2.03 µM (inactive)	2.93 µM (inactive)	0.222 µM (active)	9.68 µM (inactive)	1.69 µM (inactive)	1.12 µM (inactive)	0.977 µM (active)
COC(=O)C(Cc1ccc(O)cc1)NC(=O)C(COCc1ccccc1)NC(=O)OCc1ccccc1 (stereo not given) (Cbz-Ser(Bn)-Tyr-OMe; configuration not given here)	19.4 µM (inactive)	18.7 µM (inactive)	74.6 µM (inactive)	16.5 µM (inactive)	17.4 µM (inactive)	18.8 µM (inactive)	19.3 µM (inactive)	22.2 µM (inactive)	18.7 µM (inactive)	20.1 µM (inactive)	17.7 µM (inactive)	72.3 µM (inactive)	17 µM (inactive)	20.9 µM (inactive)	71.4 µM (inactive)	21.3 µM (inactive)	20 µM (inactive)	18.8 µM (inactive)	26.3 µM (inactive)	15.1 µM (inactive)
